Reference: patent publication US9394268B2, “(E)-1-(5-methoxy-2,2-dimethyl-2H-chromen-8-yl)-3-(4-methoxyphenyl)prop-2-en-1-one and analogs thereof, as well as preparation method and use thereof” (Sichuan University, priority 2012, dated 2016)

Columns and labels:
Assay type in all cases: cell-based
HepG2 = experiment: Cell proliferative assay (MTT), HepG2; settings: Homo sapiens, 72 h incubation, read-out: IC50s HepG2
Method: (§1) The synthesized compounds were evaluated for their cytotoxin activity against suspended tumor cells. These cells were seeded on 96-well plates and incubated for 24 h. Selected compounds were added at various doses and incubated for 72 h, MTT was then added, and the absorbance was measured at a wavelength of 590 nm. IC50 values are expressed as the mean±SEM from the dose-response curves of at least three independent experiments.

A375 = experiment: Cell proliferative assay (MTT), A375; settings: Homo sapiens, A-375, 72 h incubation, read-out: IC50s A375
Method: as §1

A549 = experiment: Cell proliferative assay (MTT), A549; settings: Homo sapiens, 72 h incubation, read-out: IC50s A549
Method: as §1

SMMC-7221 = experiment: Cell proliferative assay (MTT), SMMC-7221; settings: 72 h incubation, read-out: IC50s SMMC-7221
Method: as §1

K562 = experiment: Cell proliferative assay (MTT), K562; settings: Homo sapiens, 72 h incubation, read-out: IC50s K562
Method: as §1

LO2 = experiment: Cell proliferative assay (MTT), LO2; settings: Homo sapiens, L02, 72 h incubation, read-out: IC50s LO2
Method: as §1

Structure (SMILES)	IC50 (HepG2)	IC50 (A375)	IC50 (A549)	IC50 (SMMC-7221)	IC50 (K562)	IC50 (LO2)
COc1cccc(C(=O)Oc2cc(/C=C/C(=O)c3ccc(OC)c4c3OC(C)(C)C=C4)ccc2OC)c1 [SKLBC-63, (E)-2-methoxy-5-(3-(5-methoxy-2,2-dimethyl-2H-chromen-8-yl)-3-oxoprop-1-en-1-yl)phenyl 3-methoxybenzoate]	> 10 µM	> 10 µM	> 10 µM	> 10 µM	> 10 µM	
CCCCC(=O)Oc1cc(/C=C/C(=O)c2ccc(OC)c3c2OC(C)(C)C=C3)ccc1OC [SKLBC-79, (E)-2-methoxy-5-(3-(5-methoxy-2,2-dimethyl-2H-chromen-8-yl)-3-oxoprop-1-en-1-yl)phenyl pentanoate]	0.09 µM	0.378 µM	1.18 µM	1.03 µM	0.24 µM	> 10 µM
CNc1cc(/C=C/C(=O)c2ccc(OC)c3c2OC(C)(C)C=C3)ccc1OC [SKLBC-85, (E)-1-(5-methoxy-2,2-dimethyl-2H-chromen-8-yl)-3-(4-methoxy-3-(methylamino)phenyl)prop-2-en-1-one]	> 10 µM	> 10 µM	> 10 µM	> 10 µM	> 10 µM	> 20 µM
COc1ccc(/C=C/C(=O)c2ccc(OC)c3c2OC(C)(C)C=C3)cc1[N+](=O)[O-] [SKLBC-82, (E)-1-(5-methoxy-2,2-dimethyl-2H-chromen-8-yl)-3-(4-methoxy-3-nitrophenyl)prop-2-en-1-one]	> 10 µM	> 10 µM	> 10 µM	> 10 µM	> 10 µM	> 20 µM
CCN(CC)c1ccc(/C=C/C(=O)c2ccc(OC(=O)C3C4C[C@H]5C[C@@H](C4)C[C@@H]3C5)c3c2OC(C)(C)C=C3)cc1 (some centres unmarked) [SKLBC-56, (1r,3r,5r,7r)-8-((E)-3-(4-(diethylamino)phenyl)acryloyl)-2,2-dimethyl-2H-chromen-5-yl adamantane-2-carboxylate]	9.45 µM	> 10 µM	9.1 µM	0.59 µM		> 10 µM
COc1ccc(/C=C/C(=O)c2ccc(OC)c3c2OC(C)(C)C=C3)cc1NCCN1CCOCC1 [SKLBC-89, (E)-1-(5-methoxy-2,2-dimethyl-2H-chromen-8-yl)-3-(4-methoxy-3-((2-morpholinoethyl)amino)phenyl)prop-2-en-1-one]	0.05 µM	0.215 µM	0.215 µM	0.245 µM	0.093 µM	2.65 µM
C#CCOc1cc(/C=C/C(=O)c2ccc(OC)c3c2OC(C)(C)C=C3)ccc1OC [SKLBC-73, (E)-1-(5-methoxy-2,2-dimethyl-2H-chromen-8-yl)-3-(4-methoxy-3-(prop-2-yn-1-yloxy)phenyl)prop-2-en-1-one]	> 10 µM	> 10 µM	> 10 µM	> 10 µM	> 10 µM	> 20 µM
COc1ccc(/C=C/C(=O)c2ccc(OC)c3c2OC(C)(C)C=C3)cc1NC(=O)C(C)C [SKLBC-96, (E)-N-(2-methoxy-5-(3-(5-methoxy-2,2-dimethyl-2H-chromen-8-yl)-3-oxoprop-1-en-1-yl)phenyl)isobutyramide]	> 10 µM	> 10 µM	> 10 µM	> 10 µM	> 10 µM	> 20 µM
C=CC(=O)Nc1cc(/C=C/C(=O)c2ccc(OC)c3c2OC(C)(C)C=C3)ccc1OC [SKLBC-94, (E)-N-(2-methoxy-5-(3-(5-methoxy-2,2-dimethyl-2H-chromen-8-yl)-3-oxoprop-1-en-1-yl)phenyl)acrylamide]	> 10 µM	> 10 µM	> 10 µM	> 10 µM	> 10 µM	> 20 µM
COc1ccc(/C=C/C(=O)c2ccc(OC)c3c2OC(C)(C)C=C3)cc1NC(N)=O [SKLBC-98, (E)-1-(2-methoxy-5-(3-(5-methoxy-2,2-dimethyl-2H-chromen-8-yl)-3-oxoprop-1-en-1-yl)phenyl)urea]	3.6 µM	2.4 µM	8.6 µM	9.2 µM	7.85 µM	> 10 µM
COc1ccc(/C=C/C(=O)c2ccc(OC)c3c2OC(C)(C)C=C3)cc1OS(=O)(=O)c1ccc(C)cc1 [SKLBC-69, (E)-2-methoxy-5-(3-(5-methoxy-2,2-dimethyl-2H-chromen-8-yl)-3-oxoprop-1-en-1-yl)phenyl 4-methylbenzenesulfonate]	3.6 µM	2.4 µM	8.6 µM	9.2 µM	7.85 µM	> 10 µM
CCCCC(=O)Nc1cc(/C=C/C(=O)c2ccc(OC)c3c2OC(C)(C)C=C3)ccc1OC [SKLBC-95, (E)-N-(2-methoxy-5-(3-(5-methoxy-2,2-dimethyl-2H-chromen-8-yl)-3-oxoprop-1-en-1-yl)phenyl)pentanamide]	> 10 µM	> 10 µM	> 10 µM	> 10 µM	> 10 µM	> 20 µM
COc1ccc(/C=C/C(=O)c2ccc(OC)c3c2OC(C)(C)C=C3)cc1OC(=O)C1CC1 [SKLBC-80, (E)-2-methoxy-5-(3-(5-methoxy-2,2-dimethyl-2H-chromen-8-yl)-3-oxoprop-1-en-1-yl)phenyl cyclopropanecarboxylate]	0.118 µM	0.383 µM	1.32 µM	1.44 µM	0.41 µM	> 10 µM
COc1ccc(/C=C/C(=O)c2ccc(OC)c3c2OC(C)(C)C=C3)cc1OC(=O)Cc1cccc(C(F)(F)F)c1 [SKLBC-62, (E)-2-methoxy-5-(3-(5-methoxy-2,2-dimethyl-2H-chromen-8-yl)-3-oxoprop-1-en-1-yl)phenyl 2-(3-(trifluoromethyl)phenyl)acetate]	> 10 µM	> 10 µM	> 10 µM	> 10 µM	> 10 µM	
CCC(=O)Nc1cc(/C=C/C(=O)c2ccc(OC)c3c2OC(C)(C)C=C3)ccc1OC [SKLBC-93, (E)-N-(2-methoxy-5-(3-(5-methoxy-2,2-dimethyl-2H-chromen-8-yl)-3-oxoprop-1-en-1-yl)phenyl)propionamide]	4.55 µM		> 10 µM	5.1 µM	2.4 µM	7.8 µM
COc1ccc(/C=C/C(=O)c2ccc(OC)c3c2OC(C)(C)C=C3)cc1OC(=O)c1ccc(Br)cc1 [SKLBC-66, (E)-2-methoxy-5-(3-(5-methoxy-2,2-dimethyl-2H-chromen-8-yl)-3-oxoprop-1-en-1-yl)phenyl 4-bromobenzoate]	0.368 µM	0.413 µM		2.34 µM	1.11 µM	8.4 µM
COc1ccc(/C=C/C(=O)c2ccc(OC)c3c2OC(C)(C)C=C3)cc1NCc1ccccc1 [SKLBC-90, (E)-3-(3-(benzylamino)-4-methoxyphenyl)-1-(5-methoxy-2,2-dimethyl-2H-chromen-8-yl)prop-2-en-1-one]	4.85 µM		10 µM	> 10 µM	9.28 µM	> 10 µM
COc1ccc(/C=C/C(=O)Oc2cc(/C=C/C(=O)c3ccc(OC)c4c3OC(C)(C)C=C4)ccc2OC)cc1 [SKLBC-64, (E)-2-methoxy-5-((E)-3-(5-methoxy-2,2-dimethyl-2H-chromen-8-yl)-3-oxoprop-1-en-1-yl)phenyl 3-(4-methoxyphenyl)acrylate]	> 10 µM	> 10 µM	> 10 µM	> 10 µM	> 10 µM	
